The nature of data set [1]: Indices of Tableting Performance (Hiestand and Smith). It counts as physicochemical. Particulars: bulk azithromycin; for Brittle Fracture Index (BFI): Lots 1, 2 and 4 milled (Fitzmill, 0.027" screen, knives, high speed) for this test; for Strain Index (SI) / Tensile Strength / Worst Case Bonding Index (BLw) × 10^2: Lots 1, 2 and 4 milled for this test. The protocol:
Indices of tableting performance, for several azithromycin forms, were assessed to identify any mechanical deficiencies or attributes that may affect the ability to develop a direct compression tablet formulation of azithromycin. This assessment was performed in accordance with the procedures described in “Indices of Tableting Performance” H. E. N. Hiestand and D. P. Smith, Powder Technology 38 [1984] pp. 145–159.
More specifically, the Brittle Fracture Index, BFI, was calculated from the ratio of a material's regular tensile strength to its compromised tensile strength. Strain Index, SI, was determined from the dynamic indentation hardness test. Worst Case Bonding Index was determined by assessing the extent of particle bonding remaining after decompression assuming a very short compression dwell time and a plastic mechanism of particle separation during decompression.
Bulk azithromycin lots 1, 2, 4, 7, 10 and 11 are different crystalline forms, respectively, forms N, M, G, A, F and J. Lots 1, 2 and 4 were milled with a Fitzmill (Model JT, The Fitzpatrick Co., Elmhurst, Ill.) using a 0.027″ screen and knives at high speed in an attempt to match the smaller particle size of Lot 7. Lots 10 and 11 were evaluated as is due to their relatively small particle sizes.

A short description of data set [2]: Carr's Compressibility Index from initial and tapped density. It counts as physicochemical. Particulars: for Carr's Index: blend with ˜60% drug loading. The procedure: Carr's Compressibility Index is a simple test to evaluate flowability by comparing both the initial and final (tapped) densities and the rate of packing down. A useful empirical guide to flow is given by Carr's compressibility index: Compressibility Index(%)=[(tapped density−initial density)/tapped density]×100
Carr's Compressibility Index of the azithromycin bulk was measured by taking an initial density of a 15 gram sample in a 100 ml graduated cylinder. The sample was tapped 2000 times on a VanKel Tap Density Tester (Model 50-1200, Edison, N.J.) and the tapped density of the 15 gram sample in the 100 ml graduated cylinder was taken. The procedure is described in Int. J. Pharm. Tech. & Prod. Mfr., 6(3) 10–16, 1985.
The ingredients were weighed (except for the magnesium stearate), combined and blended in a low shear blender for 30 minutes. The blend was passed through a U.S. standard No. 20 or No. 25 mesh screen to delump the blend. The screened blend was returned to the blender and blended for an additional 30 minutes. Prior to the addition of the magnesium stearate, the initial and tapped densities of the blend were determined from which a Carr's Compressibility Index for flow was calculated for the blend. Magnesium stearate was then added to the blend, after which it was blended for an additional five minutes.

Regarding `CC[C@H]1OC(=O)[C@H](C)[C@@H](O[C@H]2C[C@@](C)(OC)[C@@H](O)[C@H](C)O2)[C@H](C)[C@@H](O[C@@H]2O[C@H](C)C[C@H](N(C)C)[C@H]2O)[C@](C)(O)C[C@@H](C)CN(C)[C@H](C)[C@@H](O)[C@]1(C)O` [Lot 1, azithromycin], in data set [1] (listed as #1 Form N), the “Brittle Fracture Index (BFI)” value came to 0.05, the “Strain Index (SI)” value stood at 0.0044, the “Tensile Strength” value is recorded as 0.75 Mpa and the “Worst Case Bonding Index (BLw) × 10^2” value is listed as 0.7.
On to `CC[C@H]1OC(=O)[C@H](C)[C@@H](O[C@H]2C[C@@](C)(OC)[C@@H](O)[C@H](C)O2)[C@H](C)[C@@H](O[C@@H]2O[C@H](C)C[C@H](N(C)C)[C@H]2O)[C@](C)(O)C[C@@H](C)CN(C)[C@H](C)[C@@H](O)[C@]1(C)O` [Lot 2, azithromycin], for which, in data set [1] (listed as #2 Form M), the “Brittle Fracture Index (BFI)” value is 0.10, the “Strain Index (SI)” value stood at 0.0048, the “Tensile Strength” value came out at 0.79 Mpa and the “Worst Case Bonding Index (BLw) × 10^2” value was 1.0.
As to `CC[C@H]1OC(=O)[C@H](C)[C@@H](O[C@H]2C[C@@](C)(OC)[C@@H](O)[C@H](C)O2)[C@H](C)[C@@H](O[C@@H]2O[C@H](C)C[C@H](N(C)C)[C@H]2O)[C@](C)(O)C[C@@H](C)CN(C)[C@H](C)[C@@H](O)[C@]1(C)O` [Lot 4, azithromycin], in data set [1] (listed as #4 Form G), the “Strain Index (SI)” value came to 0.0043, the “Tensile Strength” value was 1.03 Mpa and the “Worst Case Bonding Index (BLw) × 10^2” value was 0.8.
As to `CC[C@H]1OC(=O)[C@H](C)[C@@H](O[C@H]2C[C@@](C)(OC)[C@@H](O)[C@H](C)O2)[C@H](C)[C@@H](O[C@@H]2O[C@H](C)C[C@H](N(C)C)[C@H]2O)[C@](C)(O)C[C@@H](C)CN(C)[C@H](C)[C@@H](O)[C@]1(C)O` [Lot 6, azithromycin], the “Carr's Compressibility Index” value in data set [2] (blend of 59.3 wt % azithromycin without glidant) was 30.
As for `CC[C@H]1OC(=O)[C@H](C)[C@@H](O[C@H]2C[C@@](C)(OC)[C@@H](O)[C@H](C)O2)[C@H](C)[C@@H](O[C@@H]2O[C@H](C)C[C@H](N(C)C)[C@H]2O)[C@](C)(O)C[C@@H](C)CN(C)[C@H](C)[C@@H](O)[C@]1(C)O` [Lot 7, azithromycin], in data set [1] (listed as #7 Form A), the “Brittle Fracture Index (BFI)” value is on record as 0.10, the “Strain Index (SI)” value is on record as 0.0044, the “Tensile Strength” value was 0.99 Mpa and the “Worst Case Bonding Index (BLw) × 10^2” value is on record as 0.9.
Turning to `CC[C@H]1OC(=O)[C@H](C)[C@@H](O[C@H]2C[C@@](C)(OC)[C@@H](O)[C@H](C)O2)[C@H](C)[C@@H](O[C@@H]2O[C@H](C)C[C@H](N(C)C)[C@H]2O)[C@](C)(O)C[C@@H](C)CN(C)[C@H](C)[C@@H](O)[C@]1(C)O` [Lot 8, azithromycin], the “Carr's Index” value in data set [2] is listed as 37.
Take `CC[C@H]1OC(=O)[C@H](C)[C@@H](O[C@H]2C[C@@](C)(OC)[C@@H](O)[C@H](C)O2)[C@H](C)[C@@H](O[C@@H]2O[C@H](C)C[C@H](N(C)C)[C@H]2O)[C@](C)(O)C[C@@H](C)CN(C)[C@H](C)[C@@H](O)[C@]1(C)O` [Lot 10, azithromycin]: in data set [1] (listed as #10 Form F), the “Brittle Fracture Index (BFI)” value amounted to 0.37, the “Strain Index (SI)” value was 0.0041, the “Tensile Strength” value is 1.62 Mpa and the “Worst Case Bonding Index (BLw) × 10^2” value came out at 0.9. Also, the “Carr's Index” value in data set [2] turned out to be 34.
`CC[C@H]1OC(=O)[C@H](C)[C@@H](O[C@H]2C[C@@](C)(OC)[C@@H](O)[C@H](C)O2)[C@H](C)[C@@H](O[C@@H]2O[C@H](C)C[C@H](N(C)C)[C@H]2O)[C@](C)(O)C[C@@H](C)CN(C)[C@H](C)[C@@H](O)[C@]1(C)O` [Lot 11, azithromycin]: in data set [1] (listed as #11 Form J), the “Brittle Fracture Index (BFI)” value stood at 0.11, the “Strain Index (SI)” value is 0.0043, the “Tensile Strength” value came out at 0.69 Mpa and the “Worst Case Bonding Index (BLw) × 10^2” value is given as 0.7.

For the origin of these results see patent publication US7070811B2, “Directly compressible formulations of azithromycin” (Pfizer Inc., priority 2001, dated 2006).
